From patent US8541405B2, “Methods for the preparation of Ivabradine sulfate and form I crystal thereof” (Jiangsu Hengrui Medicine Co., Ltd., priority 2009, dated 2013)
Counter-ions that a name gives are not always drawn.

Columns and labels:
[1] = Stability test of crystal samples placed open in the air (illumination, heating, humidity), HPLC analysis; format: physicochemical; details: for HPLC analysis result, 60° C.: heating 60° C.; for HPLC analysis result, 60° C. / HPLC analysis result, RH90% / HPLC analysis result, Light: open in air; for HPLC analysis result, RH90%: humidity RH 90%; for HPLC analysis result, Light: illumination 4500 Lux
Description: The stability investigation of different Ivabradine hydrochloride crystal form: three different solvents crystallization of samples were obtained in turn according to the method of example 4 except that Ivabradine sulfate is substituted with Ivabradine hydrochloride and ethanol is substituted with acetonitrile, ethyl acetate, acetone.
Moreover, α-form crystal samples can be obtained using toluene, N-methyl pyrrole as crystallization solvents according to the method disclosed in CN1583341A.
The four samples obtained above and the form I crystal of Ivabradine sulfate prepared in example 1 were placed opening in the air to test the stability in various conditions including illumination (4500 Lux), heating (60° C.), humidity (RH 90%).

[2] = pH of the Ivabradine sulfate aqueous solution; format: physicochemical; details: C=1%
Procedure: (§1) 4.3 g of […] was dissolved in 100 ml of acetone, then 30 ml of acetone containing 1 g of sulfuric acid was added. The obtained mixture was stirred and white crystals were precipitated from the reaction solution. The resulting precipitate was collected by filtration, washed with acetone and then dried at 60° C. in vacuum for 3 hours to obtain 4.8 g of Ivabradine sulfate. Melting point was determined by capillary crystalline approach at 156˜158° C. Water content is 0.8%. The pH of the Ivabradine sulfate aqueous is about 1.8 (C=1%). Yield: 90.5%.
as §1, with “containing 0.4” for “containing 1”, “obtain 1.2” for “obtain 4.8”, “Yield: 55.5%. It is form I crystal of Ivabradine sulfate judged by X-ray and DSC patterns.” for “Yield: 90.5%.”

Row | SMILES | HPLC analysis result, 60° C. ([1]; Time 0 day, hydrochloride) [%] | HPLC analysis result, 60° C. ([1]; Time 5 days, hydrochloride) [%] | HPLC analysis result, 60° C. ([1]; Time 10 days, hydrochloride) [%] | HPLC analysis result, RH90% ([1]; Time 0 day, hydrochloride) [%] | HPLC analysis result, RH90% ([1]; Time 5 days, hydrochloride) [%] | HPLC analysis result, RH90% ([1]; Time 10 days, hydrochloride) [%] | HPLC analysis result, Light ([1]; Time 0 day, hydrochloride) [%] | HPLC analysis result, Light ([1]; Time 5 days, hydrochloride) [%] | HPLC analysis result, Light ([1]; Time 10 days, hydrochloride) [%] | also measured
1 | COc1cc2c(cc1OC)CC(=O)N(CCCN(C)C[C@H]1Cc3cc(OC)c(OC)cc31)CC2 [Ivabradine sulfate 20080922, Ivabradine sulfate] | – | – | – | – | – | – | – | – | – | HPLC analysis result, 60° C. ([1]; Time 0 day): 99.46%; HPLC analysis result, 60° C. ([1]; Time 5 days): 99.42%; HPLC analysis result, 60° C. ([1]; Time 10 days): 99.40%; HPLC analysis result, RH90% ([1]; Time 0 day): 99.46%; HPLC analysis result, RH90% ([1]; Time 5 days): 99.28%; HPLC analysis result, RH90% ([1]; Time 10 days): 99.19%; HPLC analysis result, Light ([1]; Time 0 day): 99.46%; HPLC analysis result, Light ([1]; Time 5 days): 99.42%; HPLC analysis result, Light ([1]; Time 10 days): 99.39%; stability compared with the α-form crystal of Ivabradine hydrochloride ([1]; under high moisture conditions): more stable; stability compared with the α-form crystal of Ivabradine hydrochloride ([1]; under the light and heat condition): similar; stability compared with the polymorphism or mixed crystal of Ivabradine hydrochloride from acetonitrile, ethyl acetate, acetone ([1]; under various conditions): improved significantly; pH of the Ivabradine sulfate aqueous [2]: about 1.8
2 | COc1cc2c(cc1OC)CC(=O)N(CCCN(C)C[C@H]1Cc3cc(OC)c(OC)cc31)CC2 [Ivabradine sulfate 20080618, Ivabradine hydrochloride] | 99.54 | 99.50 | 99.46 | 99.54 | 99.23 | 99.00 | 99.54 | 99.47 | 99.42 | –
3 | COc1cc2c(cc1OC)CC(=O)N(CCCN(C)C[C@H]1Cc3cc(OC)c(OC)cc31)CC2 [Ivabradine hydrochloride 20080908, Ivabradine hydrochloride] | 99.56 | 98.74 | 99.04 | 99.56 | 99.03 | 98.61 | 99.56 | 97.45 | 94.91 | –
4 | COc1cc2c(cc1OC)CC(=O)N(CCCN(C)C[C@H]1Cc3cc(OC)c(OC)cc31)CC2 [Ivabradine hydrochloride 20080912, Ivabradine hydrochloride] | 99.57 | 99.36 | 99.05 | 99.57 | 99.20 | 98.91 | 99.57 | 99.29 | 98.87 | –
5 | COc1cc2c(cc1OC)CC(=O)N(CCCN(C)C[C@H]1Cc3cc(OC)c(OC)cc31)CC2 [Ivabradine hydrochloride 20080911, Ivabradine hydrochloride] | 99.55 | 99.31 | 99.12 | 99.55 | 99.10 | 98.42 | 99.55 | 98.88 | 98.07 | –
